Reference: patent US12209102B2, “Heterocyclic compounds and uses thereof” (Kumquat Biosciences Inc., priority 2022, dated 2025)

Tests used:
K-Ras G12S = biological target: T1, K-Ras G12S (Homo sapiens, UniProt P01116, G12S); test: HTRF resonance energy transfer assay, K-Ras G12S / SOS1 interaction; format: biochemical; conditions: HTRF assay of Example 5; read-out: IC50 against K-Ras G12S
T1 construct: made in house; host or cells: E. coli BL21 (DE3)
How it was run: (§1)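 Read-out: HTRF 665/620 nm ratio (excitation 337 nm) after roughly 10 min or longer incubation, used to derive IC50. Donor anti-GST-Eu on GST-K-Ras; acceptor anti-6His-XL665 on His-hSOS1. Duplicate dose series from 10 μM down to 0.01 μM.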

SW620 cells = test: Ras cellular assay, growth of cells with K-Ras G12V mutation (CellTiter-Glo); format: cell-based; conditions: Homo sapiens, SW-620; cell growth, Example 9, G12V mutation; read-out: IC50 against SW620 cells
How it was run: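 SW620 (K-Ras G12V) cells, e.g. 800/well in RPMI-1640 with 10% heat-inactivated FBS on standard or ultra-low attachment plates, were dosed the day after plating with e.g. a 10-point 3-fold series. Viability by CellTiter-Glo luminescence about 6 days later; IC50 from four-parameter fit.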

A549 cells = test: Ras cellular assay, growth of cells with K-Ras G12S mutation (CellTiter-Glo); format: cell-based; conditions: Homo sapiens, cell growth, Example 9, G12S mutation, read-out: IC50 against A549 cells
How it was run: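 A549 cells (K-Ras G12S) in RPMI-1640 with 10% heat-inactivated FBS, seeded e.g. 800 per well in standard or ultra-low-attachment 384-well plates, treated next day with a dilution series (e.g. 10-point, 3-fold). Viability by CellTiter-Glo luminescence about 6 days later; IC50 from four-parameter fit.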

K-Ras G12V = biological target: T2, K-Ras G12V (Homo sapiens, UniProt P01116, G12V); test: HTRF resonance energy transfer assay, K-Ras G12V / SOS1 interaction; format: biochemical; conditions: HTRF assay of Example 5; read-out: IC50 against K-Ras G12V
T2 construct: made in house; host or cells: E. coli BL21 (DE3)
T2 sequence (P01116 1-188 isoform P01116-2 G12V): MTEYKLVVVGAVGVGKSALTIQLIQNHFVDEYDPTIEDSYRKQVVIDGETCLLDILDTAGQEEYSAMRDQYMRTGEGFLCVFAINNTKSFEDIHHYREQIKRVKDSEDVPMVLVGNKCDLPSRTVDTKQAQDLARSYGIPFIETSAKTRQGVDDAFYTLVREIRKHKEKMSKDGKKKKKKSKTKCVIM
How it was run: as §1

K-Ras WT = biological target: T3, K-Ras WT (Homo sapiens, UniProt P01116); test: HTRF resonance energy transfer assay, K-Ras WT / SOS1 interaction; format: biochemical; conditions: HTRF assay of Example 5; read-out: IC50 against K-Ras WT
T3 construct: made in house; host or cells: E. coli BL21 (DE3)
T3 sequence (P01116 1-188 isoform P01116-2): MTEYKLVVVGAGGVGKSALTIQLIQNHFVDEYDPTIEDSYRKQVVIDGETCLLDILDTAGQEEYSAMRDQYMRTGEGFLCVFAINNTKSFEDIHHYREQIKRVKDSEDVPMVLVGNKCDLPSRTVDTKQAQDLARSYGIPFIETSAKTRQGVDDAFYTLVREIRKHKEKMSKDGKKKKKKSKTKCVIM
How it was run: as §1

K-Ras G12D = biological target: T4, K-Ras G12D (Homo sapiens, UniProt P01116, G12D); test: HTRF resonance energy transfer assay, K-Ras G12D / SOS1 interaction; format: biochemical; conditions: HTRF assay of Example 5; read-out: IC50 against K-Ras G12D
T4 construct: made in house; host or cells: E. coli BL21 (DE3)
T4 sequence (P01116 1-188 isoform P01116-2 G12D): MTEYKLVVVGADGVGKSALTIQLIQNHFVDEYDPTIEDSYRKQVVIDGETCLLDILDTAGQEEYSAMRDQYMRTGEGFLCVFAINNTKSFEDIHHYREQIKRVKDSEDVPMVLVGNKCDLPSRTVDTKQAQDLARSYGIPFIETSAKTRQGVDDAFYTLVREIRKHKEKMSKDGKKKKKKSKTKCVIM
How it was run: as §1

T1 sequence (P01116 1-188 isoform P01116-2 G12S): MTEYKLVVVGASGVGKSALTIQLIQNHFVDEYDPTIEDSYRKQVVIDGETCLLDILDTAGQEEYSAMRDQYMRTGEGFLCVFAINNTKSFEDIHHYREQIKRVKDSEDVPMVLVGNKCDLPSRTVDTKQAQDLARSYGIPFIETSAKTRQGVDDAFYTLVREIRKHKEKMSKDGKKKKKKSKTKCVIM

Row | Compound | IC50 (K-Ras G12S) | IC50 (SW620 cells) | IC50 (A549 cells) | IC50 (K-Ras G12V) | IC50 (K-Ras WT) | IC50 (K-Ras G12D)
1 | N#Cc1c(N)sc2c(F)ccc(-c3c(Cl)c4c5c(nc(OC[C@@]67CCCN6C[C@H](F)C7)nc5c3F)N(C3CCC5(C3)CN(C(=O)C3CC3)C5)CCO4)c12 (stereo partly drawn) [Compound 1011, 2-amino-4-(8-chloro-4-(2-(cyclopropanecarbonyl)-2-azaspiro[3.4]octan-6-yl)-10-fluoro-2-(((2R,7aS)-2-fluorotetrahydro-1H-pyrrolizin-7a(5H)-yl)methoxy)-5,6-dihydro-4H-[1,4]oxazepino[5,6,7-de]quinazolin-9-yl)-7-fluorobenzo[b]thiophene-3-carbonitrile] | < 100 nM | < 5000 nM | < 5000 nM | < 100 nM | < 100 nM | < 100 nM
2 | N#Cc1c(N)sc2c(F)ccc(-c3c(Cl)c4c5c(nc(OC[C@@]67CCCN6C[C@H](F)C7)nc5c3F)N(C3CCOCC3)CCO4)c12 [Compound 813, 2-amino-4-(8-chloro-10-fluoro-2-(((2R,7aS)-2-fluorotetrahydro-1H-pyrrolizin-7a(5H)-yl)methoxy)-4-(tetrahydro-2H-pyran-4-yl)-5,6-dihydro-4H-[1,4]oxazepino[5,6,7-de]quinazolin-9-yl)-7-fluorobenzo[b]thiophene-3-carbonitrile] | < 100 nM | < 5000 nM | < 5000 nM | < 100 nM | < 100 nM | < 100 nM
3 | COCCN1CCC(N2CCOc3c(Cl)c(-c4ccc(F)c5sc(N)c(C#N)c45)c(F)c4nc(OC[C@@]56CCCN5C[C@H](F)C6)nc2c34)C1 (stereo partly drawn) [Compound 936, 2-amino-4-(8-chloro-10-fluoro-2-(((2R,7aS)-2-fluorotetrahydro-1H-pyrrolizin-7a(5H)-yl)methoxy)-4-(1-(2-methoxyethyl)pyrrolidin-3-yl)-5,6-dihydro-4H-[1,4]oxazepino[5,6,7-de]quinazolin-9-yl)-7-fluorobenzo[b]thiophene-3-carbonitrile] | < 100 nM | < 5000 nM | < 5000 nM | < 100 nM | < 100 nM | < 100 nM
4 | C[C@H]1COc2c(Cl)c(-c3ccc(F)c4sc(N)c(C#N)c34)c(F)c3nc(OC[C@@]45CCCN4C[C@H](F)C5)nc(c23)N1C1CCN(C(=O)C2CC2C#N)CC1 (stereo partly drawn) [Compound 995, 2-amino-4-((5S)-8-chloro-4-(1-(2-cyanocyclopropane-1-carbonyl)piperidin-4-yl)-10-fluoro-2-(((2R,7aS)-2-fluorotetrahydro-1H-pyrrolizin-7a(5H)-yl)methoxy)-5-methyl-5,6-dihydro-4H-[1,4]oxazepino[5,6,7-de]quinazolin-9-yl)-7-fluorobenzo[b]thiophene-3-carbonitrile] | < 100 nM | < 5000 nM | < 5000 nM | < 100 nM | < 100 nM | < 100 nM
5 | COC1CN(C(=O)N2CCC(N3C[C@H](C)Oc4c(Cl)c(-c5ccc(F)c6sc(N)c(C#N)c56)c(F)c5nc(OC[C@@]67CCCN6C[C@H](F)C7)nc3c45)CC2)C1 [Compound 935, 2-amino-4-((6S)-8-chloro-10-fluoro-2-(((2R,7aS)-2-fluorotetrahydro-1H-pyrrolizin-7a(5H)-yl)methoxy)-4-(1-(3-methoxyazetidine-1-carbonyl)piperidin-4-yl)-6-methyl-5,6-dihydro-4H-[1,4]oxazepino[5,6,7-de]quinazolin-9-yl)-7-fluorobenzo[b]thiophene-3-carbonitrile] | < 100 nM | < 5000 nM | < 5000 nM | < 100 nM | < 100 nM | < 100 nM

The next lines start with the values.

Row | IC50 (K-Ras G12S) | IC50 (SW620 cells) | IC50 (A549 cells) | IC50 (K-Ras G12V) | IC50 (K-Ras WT) | IC50 (K-Ras G12D) | Compound
6 | < 100 nM | < 5000 nM | < 5000 nM | < 100 nM | < 100 nM | < 100 nM | CC(O)C1C(C)Oc2c(Cl)c(-c3ccc(F)c4sc(N)c(C#N)c34)c(F)c3nc(OC[C@@]45CCCN4C[C@H](F)C5)nc(c23)N1CC(F)F (stereo partly drawn) [Compound 646, 2-amino-4-(8-chloro-4-(2,2-difluoroethyl)-10-fluoro-2-(((2R,7aS)-2-fluorotetrahydro-1H-pyrrolizin-7a(5H)-yl)methoxy)-5-(1-hydroxyethyl)-6-methyl-5,6-dihydro-4H-[1,4]oxazepino[5,6,7-de]quinazolin-9-yl)-7-fluorobenzo[b]thiophene-3-carbonitrile]
7 | < 100 nM | < 5000 nM | < 5000 nM | < 100 nM | < 100 nM | < 100 nM | N#Cc1c(N)sc2c(F)ccc(-c3c(Cl)c4c5c(nc(OC[C@@]67CCCN6C[C@H](F)C7)nc5c3F)N(C3CC35CNC5)CCO4)c12 (stereo partly drawn) [Compound 990, 2-amino-4-(8-chloro-10-fluoro-2-(((2R,7aS)-2-fluorotetrahydro-1H-pyrrolizin-7a(5H)-yl)methoxy)-4-(5-azaspiro[2.3]hexan-1-yl)-5,6-dihydro-4H-[1,4]oxazepino[5,6,7-de]quinazolin-9-yl)-7-fluorobenzo[b]thiophene-3-carbonitrile]
8 | < 100 nM | < 5000 nM | < 5000 nM | < 100 nM | < 100 nM | < 100 nM | CC1(O)CC(N2CCOc3c(Cl)c(-c4ccc(F)c5sc(N)c(C#N)c45)c(F)c4nc(OC[C@@]56CCCN5C[C@H](F)C6)nc2c34)C1 (stereo partly drawn) [Compound 708, 2-amino-4-(8-chloro-10-fluoro-2-(((2R,7aS)-2-fluorotetrahydro-1H-pyrrolizin-7a(5H)-yl)methoxy)-4-(3-hydroxy-3-methylcyclobutyl)-5,6-dihydro-4H-[1,4]oxazepino[5,6,7-de]quinazolin-9-yl)-7-fluorobenzo[b]thiophene-3-carbonitrile]
9 | < 100 nM | < 5000 nM | < 5000 nM | < 100 nM | < 100 nM | < 100 nM | N#Cc1c(N)sc2c(F)ccc(-c3c(Cl)c4c5c(nc(OC[C@@]67CCCN6C[C@H](F)C7)nc5c3F)N(C3CC(C#N)C3)CCO4)c12 (stereo partly drawn) [Compound 1043, 2-amino-4-(8-chloro-4-(3-cyanocyclobutyl)-10-fluoro-2-(((2R,7aS)-2-fluorotetrahydro-1H-pyrrolizin-7a(5H)-yl)methoxy)-5,6-dihydro-4H-[1,4]oxazepino[5,6,7-de]quinazolin-9-yl)-7-fluorobenzo[b]thiophene-3-carbonitrile]
10 | < 100 nM | < 5000 nM | < 5000 nM | < 100 nM | < 100 nM | < 100 nM | CNC(=O)C1CC(N2CCOc3c(Cl)c(-c4ccc(F)c5sc(N)c(C#N)c45)c(F)c4nc(OC[C@@]56CCCN5C[C@H](F)C6)nc2c34)C1 (stereo partly drawn) [Compound 859, 3-(9-(2-amino-3-cyano-7-fluorobenzo[b]thiophen-4-yl)-8-chloro-10-fluoro-2-(((2R,7aS)-2-fluorotetrahydro-1H-pyrrolizin-7a(5H)-yl)methoxy)-5,6-dihydro-4H-[1,4]oxazepino[5,6,7-de]quinazolin-4-yl)-N-methylcyclobutane-1-carboxamide]
11 | < 100 nM | < 5000 nM | < 5000 nM | < 100 nM | < 100 nM | < 100 nM | N#Cc1c(N)sc2c(F)ccc(-c3c(Cl)c4c5c(nc(OC[C@@]67CCCN6C[C@H](F)C7)nc5c3F)N(C3CCN(C(=O)C(F)F)CC3)CCO4)c12 [Compound 971, 2-amino-4-(8-chloro-4-(1-(2,2-difluoroacetyl)piperidin-4-yl)-10-fluoro-2-(((2R,7aS)-2-fluorotetrahydro-1H-pyrrolizin-7a(5H)-yl)methoxy)-5,6-dihydro-4H-[1,4]oxazepino[5,6,7-de]quinazolin-9-yl)-7-fluorobenzo[b]thiophene-3-carbonitrile]
12 | < 100 nM | < 5000 nM | < 5000 nM | < 100 nM | < 100 nM | < 100 nM | CC1Oc2c(Cl)c(-c3ccc(F)c4sc(N)c(C#N)c34)c(F)c3nc(OC[C@@]45CCCN4C[C@H](F)C5)nc(c23)N(CC(F)F)C1C(C)(C)O (stereo partly drawn) [Compound 655, 2-amino-4-(8-chloro-4-(2,2-difluoroethyl)-10-fluoro-2-(((2R,7aS)-2-fluorotetrahydro-1H-pyrrolizin-7a(5H)-yl)methoxy)-5-(2-hydroxypropan-2-yl)-6-methyl-5,6-dihydro-4H-[1,4]oxazepino[5,6,7-de]quinazolin-9-yl)-7-fluorobenzo[b]thiophene-3-carbonitrile]
